Experimental data from ChEMBL document CHEMBL1201862, “PubChem BioAssay data set” (2004).
Active and inactive are the calls of the source.

What was measured:
[1] = microbe, parasite or virus in culture; format: functional; conditions: Mycobacterium tuberculosis
[2] = target: T1, Short transient receptor potential channel 4 (Mus musculus, UniProt Q9QUQ5); assay: calcium entry via TRPC4 opening agents – cell-based, HEK293 TRPC4/mu-opioid, Fluo-4 calcium, dose response (AID 434937); format: functional
T1 sequence (Q9QUQ5 whole entry): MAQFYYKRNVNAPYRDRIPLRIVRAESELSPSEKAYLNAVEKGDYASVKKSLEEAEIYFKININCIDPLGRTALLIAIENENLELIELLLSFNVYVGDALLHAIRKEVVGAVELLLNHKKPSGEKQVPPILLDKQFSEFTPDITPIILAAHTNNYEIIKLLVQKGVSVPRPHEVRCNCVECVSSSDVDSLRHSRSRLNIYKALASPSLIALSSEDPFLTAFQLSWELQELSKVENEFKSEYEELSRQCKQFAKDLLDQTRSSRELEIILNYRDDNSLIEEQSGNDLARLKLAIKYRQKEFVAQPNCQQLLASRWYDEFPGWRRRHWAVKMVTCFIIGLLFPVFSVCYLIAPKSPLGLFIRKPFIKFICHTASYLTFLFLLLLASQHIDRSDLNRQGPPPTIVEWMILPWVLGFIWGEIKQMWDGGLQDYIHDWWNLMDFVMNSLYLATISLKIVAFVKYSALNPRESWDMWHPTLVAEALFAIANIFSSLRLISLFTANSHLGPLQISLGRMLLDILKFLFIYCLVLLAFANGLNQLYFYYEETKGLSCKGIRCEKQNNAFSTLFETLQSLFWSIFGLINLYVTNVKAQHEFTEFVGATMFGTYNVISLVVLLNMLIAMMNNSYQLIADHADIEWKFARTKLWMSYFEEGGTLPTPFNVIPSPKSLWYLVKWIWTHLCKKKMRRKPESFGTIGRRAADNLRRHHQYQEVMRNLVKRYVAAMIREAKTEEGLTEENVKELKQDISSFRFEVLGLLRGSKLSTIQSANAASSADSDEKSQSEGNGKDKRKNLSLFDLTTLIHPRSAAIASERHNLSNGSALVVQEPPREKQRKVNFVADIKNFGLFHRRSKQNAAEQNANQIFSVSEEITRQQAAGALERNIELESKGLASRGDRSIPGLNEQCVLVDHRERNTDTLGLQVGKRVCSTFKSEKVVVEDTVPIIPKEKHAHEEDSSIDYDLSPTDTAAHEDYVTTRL

[3] = target: Heat shock protein HSP 90-alpha (Homo sapiens, UniProt P07900); format: functional, organism-based
[4] = fluconazole-exposed Candida albicans growth modulators – fluorescence, retest, confirmation (AID 2467); format: functional, cell-based
[5] = NIH-3T3 fibroblast cytotoxicity, dose response, cytotoxicity control, cell-based, fluorescence, Alamar Blue, secondary assay (AID 2327); format: functional;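 note: NIH-3T3 mouse fibroblasts cultured with fluconazole at 8 µg/mL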
Prothrombin = Prothrombin (Bos taurus, UniProt P00735); assay: thrombin protease inhibitors – biochemical, fluorescence polarization, uHTS hits, dose response (AID 602369); format: functional
[6] = target: 72 kDa type IV collagenase (Homo sapiens, UniProt P08253); assay: Dose Response validation of uHTS RPN11 inhibitor hits using a MMP-2 Fluorescence assay.; format: functional
[7] = target: 26S proteasome non-ATPase regulatory subunit 14 (Homo sapiens, UniProt O00487); assay: inhibition of proteasome subunit RPN11 – biochemical, fluorescence polarization, uHTS hits, confirmation (AID 602368); format: functional
[8] = target: T2, Endoribonuclease toxin MazF (Escherichia coli K-12, UniProt P0AE70); assay: activation of MazEF endoribonuclease cleavage – biochemical, fluorescence, single-stranded RNA substrate, uHTS hits, dose response (AID 588481); format: functional
T2 sequence (P0AE70 whole entry): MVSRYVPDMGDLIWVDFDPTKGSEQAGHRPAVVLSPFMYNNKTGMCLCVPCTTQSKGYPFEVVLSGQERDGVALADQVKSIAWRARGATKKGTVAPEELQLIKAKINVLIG

[9] = Luminescence Cell-Based Dose Retest to Confirm Inhibitors of Cancer Stem Cells. [Related pubchem assays (depositor defined):AID2717, AID2721]; format: functional; conditions: Homo sapiens
cells = format: functional
[10] = target: T2, Endoribonuclease toxin MazF; assay: substrate-only fluorescence increase artefacts – biochemical, single-stranded RNase substrate, counter-screen for MazEF activator project, dose response (AID 588502); format: functional
Protein RecA = target: T3, Protein RecA (Mycobacterium tuberculosis, UniProt P9WHJ3); assay: Fluorescence Cell-Free Homogeneous Dose Retest to Identify Inhibitors of RecA-Intein Splicing Activity. [Related pubchem assays (depositor defined):AID2097, AID2223, AID489010, AID492950]; format: functional
T3 sequence (P9WHJ3 whole entry): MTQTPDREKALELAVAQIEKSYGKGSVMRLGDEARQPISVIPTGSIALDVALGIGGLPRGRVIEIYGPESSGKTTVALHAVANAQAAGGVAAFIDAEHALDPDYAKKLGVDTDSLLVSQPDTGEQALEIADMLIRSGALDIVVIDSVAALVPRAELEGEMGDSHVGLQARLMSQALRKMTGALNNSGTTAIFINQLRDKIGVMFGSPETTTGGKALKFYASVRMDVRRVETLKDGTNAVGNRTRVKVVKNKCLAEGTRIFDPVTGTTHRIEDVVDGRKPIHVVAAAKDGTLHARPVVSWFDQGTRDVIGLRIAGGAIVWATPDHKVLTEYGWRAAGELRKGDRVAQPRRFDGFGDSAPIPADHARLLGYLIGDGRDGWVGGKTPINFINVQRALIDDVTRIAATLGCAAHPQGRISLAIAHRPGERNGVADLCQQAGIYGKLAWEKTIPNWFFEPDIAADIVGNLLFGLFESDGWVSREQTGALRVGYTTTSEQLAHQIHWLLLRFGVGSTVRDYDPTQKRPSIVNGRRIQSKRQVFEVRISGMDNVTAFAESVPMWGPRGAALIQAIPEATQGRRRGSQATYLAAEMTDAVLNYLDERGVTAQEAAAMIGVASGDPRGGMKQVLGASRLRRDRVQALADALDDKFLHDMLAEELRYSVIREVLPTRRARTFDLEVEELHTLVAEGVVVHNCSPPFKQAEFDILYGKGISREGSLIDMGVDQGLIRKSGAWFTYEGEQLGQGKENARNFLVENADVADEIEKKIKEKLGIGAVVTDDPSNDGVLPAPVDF

[11] = target: T4, Replicative DNA helicase DnaB (Mycobacterium tuberculosis, UniProt P9WMR3); assay: DnaB intein splicing inhibitors, dose response, biochemical, cell-free fluorescence (AID 449749); format: functional
T4 sequence (P9WMR3 whole entry): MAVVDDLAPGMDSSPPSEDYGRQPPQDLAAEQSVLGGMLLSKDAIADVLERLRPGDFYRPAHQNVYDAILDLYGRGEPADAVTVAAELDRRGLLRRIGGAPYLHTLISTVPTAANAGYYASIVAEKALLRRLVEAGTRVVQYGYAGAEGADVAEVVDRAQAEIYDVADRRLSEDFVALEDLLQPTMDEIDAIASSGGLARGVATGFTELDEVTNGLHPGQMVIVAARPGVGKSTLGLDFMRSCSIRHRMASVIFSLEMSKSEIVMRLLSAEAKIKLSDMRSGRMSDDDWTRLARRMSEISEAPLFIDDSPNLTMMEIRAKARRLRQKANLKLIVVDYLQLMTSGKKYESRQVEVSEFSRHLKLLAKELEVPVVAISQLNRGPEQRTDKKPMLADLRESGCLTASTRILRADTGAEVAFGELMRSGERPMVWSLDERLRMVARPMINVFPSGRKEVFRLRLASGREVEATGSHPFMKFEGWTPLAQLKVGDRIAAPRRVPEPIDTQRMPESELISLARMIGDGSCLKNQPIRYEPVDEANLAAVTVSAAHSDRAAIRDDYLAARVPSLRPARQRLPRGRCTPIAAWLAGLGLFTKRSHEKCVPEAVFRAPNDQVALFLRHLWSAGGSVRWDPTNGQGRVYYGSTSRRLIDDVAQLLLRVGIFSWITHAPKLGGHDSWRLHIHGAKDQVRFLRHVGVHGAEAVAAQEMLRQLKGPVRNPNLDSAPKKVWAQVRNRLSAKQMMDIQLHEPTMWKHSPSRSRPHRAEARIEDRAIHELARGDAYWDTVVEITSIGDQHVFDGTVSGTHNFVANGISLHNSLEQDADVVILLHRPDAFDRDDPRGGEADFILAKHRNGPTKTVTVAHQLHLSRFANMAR

Cytochrome P450 3A4 = Cytochrome P450 3A4 (Homo sapiens, UniProt P08684); conditions: Potency;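 note: confirmatory qHTS run detecting inhibitors and substrates of CYP3A4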
[12] = target: Voltage-gated inwardly rectifying potassium channel KCNH2 (Homo sapiens, UniProt Q12809); conditions: Potency;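 note: confirmatory quantitative high-throughput screen measuring inhibition of hERG channel activity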
[13] = luciferase reporter signal suppression in cells – H4 neuroglioma cells, luminescence, dose response (AID 1990); format: functional, cell-based
[14] = target: T5, Ubiquitin-conjugating enzyme E2 N (Homo sapiens, UniProt P61088); format: functional;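 note: Dose-response confirmation in a TR-FRET assay detecting UBC13-driven polyubiquitin chain formation, inhibition measured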
T5 sequence (P61088 whole entry): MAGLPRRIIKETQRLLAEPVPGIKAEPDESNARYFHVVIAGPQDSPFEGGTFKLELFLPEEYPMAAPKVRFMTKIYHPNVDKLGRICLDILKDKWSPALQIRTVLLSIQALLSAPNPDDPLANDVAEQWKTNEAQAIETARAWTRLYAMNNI

[15] = Luminescence Cell-Based Dose Response HTS to Identify Inhibitors of 5'UTR Stem-Loop Driven Prion Protein mRNA Translation in H4 Neuroglioblastoma Cells. [Related pubchem assays: 1827 (Project Summary), 1813 (Primary HTS)]; format: functional
[16] = alpha-synuclein stem-loop luciferase translation blockers – H4 neuroglioma cells, luminescence, confirmation (AID 1988); format: functional, cell-based
Streptococcus = assay: GAS UMAA2166 growth inhibition – luminescence, BacTiterGlo, counter-screen for streptokinase expression inhibitor project, dose response (AID 1915); format: functional, organism-based;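 note: potency for reduction of bacterial viability or growth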
[17] = system: Streptococcus sp. 'group A'; assay: Streptococcus pyogenes SK(-)GAS viability under kanamycin – luminescence, BacTiterGlo, confirmation, counter-screen for streptokinase expression inhibitor project, dose response (AID 1900); format: functional, organism-based
INS1 = assay: INS-1E survival protection against cytokine death – cell-based, luminescence, retest, dose response (AID 449756); format: functional; conditions: Rattus norvegicus;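 note: cell death triggered by IL-1 beta plus TNF-alpha plus IFN-gamma mixture; protective hits raise ATP signal compared with cytokine alone wells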
SN12K1 = assay: cells; format: functional; conditions: Homo sapiens
P388/ADR = assay: cells; format: functional; conditions: Mus musculus
P388 = assay: cells; format: functional; conditions: Mus musculus

Chain of 26S proteasome non-ATPase regulatory subunit 14 (O00487 whole entry): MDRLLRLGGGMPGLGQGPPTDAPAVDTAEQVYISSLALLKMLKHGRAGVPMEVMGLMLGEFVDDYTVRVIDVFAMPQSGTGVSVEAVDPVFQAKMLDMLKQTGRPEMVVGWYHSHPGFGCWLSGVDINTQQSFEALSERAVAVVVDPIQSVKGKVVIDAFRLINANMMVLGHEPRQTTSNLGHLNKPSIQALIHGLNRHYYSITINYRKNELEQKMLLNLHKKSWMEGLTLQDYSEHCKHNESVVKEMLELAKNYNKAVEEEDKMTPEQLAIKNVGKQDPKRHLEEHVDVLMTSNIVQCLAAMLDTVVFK
Chain of 72 kDa type IV collagenase (P08253 whole entry): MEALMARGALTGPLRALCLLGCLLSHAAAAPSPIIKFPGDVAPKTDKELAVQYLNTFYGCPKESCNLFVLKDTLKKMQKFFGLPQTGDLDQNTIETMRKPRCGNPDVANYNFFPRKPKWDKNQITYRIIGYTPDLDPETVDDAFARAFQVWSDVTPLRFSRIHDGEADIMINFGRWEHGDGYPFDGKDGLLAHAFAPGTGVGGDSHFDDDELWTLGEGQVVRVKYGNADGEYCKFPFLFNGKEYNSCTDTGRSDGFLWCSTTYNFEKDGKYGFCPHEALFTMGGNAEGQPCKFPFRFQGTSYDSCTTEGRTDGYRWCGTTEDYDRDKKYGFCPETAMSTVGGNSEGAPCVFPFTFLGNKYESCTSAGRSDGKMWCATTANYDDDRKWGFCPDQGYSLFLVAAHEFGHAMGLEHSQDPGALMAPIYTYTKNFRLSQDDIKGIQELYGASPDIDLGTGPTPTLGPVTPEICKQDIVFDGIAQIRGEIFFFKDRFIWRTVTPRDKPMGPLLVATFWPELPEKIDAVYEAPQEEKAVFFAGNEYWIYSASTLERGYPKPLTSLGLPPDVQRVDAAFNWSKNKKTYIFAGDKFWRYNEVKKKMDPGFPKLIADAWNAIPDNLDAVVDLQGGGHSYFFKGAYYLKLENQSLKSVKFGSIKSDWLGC
Chain of Voltage-gated inwardly rectifying potassium channel KCNH2 (Q12809 whole entry): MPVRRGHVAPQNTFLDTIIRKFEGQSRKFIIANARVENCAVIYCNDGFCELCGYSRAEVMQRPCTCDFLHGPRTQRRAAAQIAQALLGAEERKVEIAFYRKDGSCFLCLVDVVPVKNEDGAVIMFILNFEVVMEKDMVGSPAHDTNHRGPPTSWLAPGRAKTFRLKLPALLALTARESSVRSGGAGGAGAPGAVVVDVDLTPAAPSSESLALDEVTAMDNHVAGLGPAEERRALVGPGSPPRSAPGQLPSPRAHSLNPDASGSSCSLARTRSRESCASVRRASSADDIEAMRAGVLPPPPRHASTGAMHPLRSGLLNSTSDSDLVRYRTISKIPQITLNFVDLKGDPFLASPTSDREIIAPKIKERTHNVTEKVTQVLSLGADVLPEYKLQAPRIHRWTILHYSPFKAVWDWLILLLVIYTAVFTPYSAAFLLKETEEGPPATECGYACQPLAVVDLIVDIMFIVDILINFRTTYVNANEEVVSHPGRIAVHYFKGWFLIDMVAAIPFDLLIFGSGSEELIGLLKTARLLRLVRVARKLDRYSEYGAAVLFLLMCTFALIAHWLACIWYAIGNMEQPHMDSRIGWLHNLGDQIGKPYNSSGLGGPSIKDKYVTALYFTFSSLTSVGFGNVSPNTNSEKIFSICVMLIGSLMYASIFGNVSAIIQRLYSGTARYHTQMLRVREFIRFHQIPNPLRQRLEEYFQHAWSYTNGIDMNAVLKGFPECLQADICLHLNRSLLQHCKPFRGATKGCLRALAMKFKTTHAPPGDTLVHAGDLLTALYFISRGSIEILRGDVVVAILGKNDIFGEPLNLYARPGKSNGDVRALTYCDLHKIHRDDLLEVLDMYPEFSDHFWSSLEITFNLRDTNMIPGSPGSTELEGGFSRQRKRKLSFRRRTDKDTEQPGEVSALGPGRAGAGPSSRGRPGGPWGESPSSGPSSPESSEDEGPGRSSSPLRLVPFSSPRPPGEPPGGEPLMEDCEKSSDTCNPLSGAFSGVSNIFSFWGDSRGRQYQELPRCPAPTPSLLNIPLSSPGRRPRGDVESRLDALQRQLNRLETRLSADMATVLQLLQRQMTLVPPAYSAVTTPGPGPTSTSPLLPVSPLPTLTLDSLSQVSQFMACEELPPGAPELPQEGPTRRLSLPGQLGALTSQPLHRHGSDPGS
Chain of Cytochrome P450 3A4 (P08684 whole entry): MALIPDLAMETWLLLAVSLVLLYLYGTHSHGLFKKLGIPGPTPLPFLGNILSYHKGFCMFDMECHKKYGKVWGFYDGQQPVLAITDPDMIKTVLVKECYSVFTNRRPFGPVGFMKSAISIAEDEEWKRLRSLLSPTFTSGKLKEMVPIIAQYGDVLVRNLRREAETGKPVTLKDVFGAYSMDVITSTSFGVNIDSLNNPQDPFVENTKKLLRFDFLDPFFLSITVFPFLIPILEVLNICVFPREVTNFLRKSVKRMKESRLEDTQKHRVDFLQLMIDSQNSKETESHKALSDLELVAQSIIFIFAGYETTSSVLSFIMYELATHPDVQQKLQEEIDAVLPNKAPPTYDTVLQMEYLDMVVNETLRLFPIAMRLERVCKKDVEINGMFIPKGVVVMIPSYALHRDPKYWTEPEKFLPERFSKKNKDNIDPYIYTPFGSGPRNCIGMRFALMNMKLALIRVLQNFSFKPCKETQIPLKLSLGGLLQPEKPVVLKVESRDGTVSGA

CN(C)C1(CNC(=O)Nc2ccc(Cl)c(Cl)c2)CCCCC1
CC50 [1]: > 40 µM (active) | EC50 [2]: 1.68 µM (active)

O=C(/C=C/c1cc(Br)ccc1O)c1ccco1
AC50 [3]: 7.73 µM (active) | CC50 [1]: 7.21 µM (active) | EC50 [4]: 2.26 µM (active) | EC50 [5]: > 150 µM (inconclusive)

CCOc1cc(/C=C2\SC(=S)N(NC(=O)c3cccnc3)C2=O)ccc1O
IC50 (Prothrombin): 35.7 µM (active) | IC50 [6]: > 100 µM (inactive) | IC50 [7]: 25.8 µM (active)

CC(C)OC(=O)c1c2c(n3ccccc13)C(=O)c1ccccc1C2=O
EC50 [8]: > 99 µM (inactive) | AC50 [9]: 2.17 µM (active) | IC50 (cells): 0.44 µM (active) | EC50 [10]: > 99 µM (inactive)

Cc1cccc(C(=O)OC2CCCN(C)C2)c1C (centres undefined)
EC50 [2]: 0.841 µM (active)

O=C(CCl)NN=C(c1ccccc1)c1ccccc1
CC50 [1]: 6.85 µM (active) | EC50 [8]: 61.2 µM (inactive) | EC50 (Protein RecA): 2.71 µM (active) | AC50 [11]: 12.1 µM (active) | EC50 [10]: > 99 µM (inactive)

COc1cccc(Nc2nc(-c3ccccc3O)nc3ccccc23)c1
EC50 [8]: > 99 µM (inactive) | EC50 [10]: 40.7 µM (inactive)

CCCCCCCC/C=C\CCCCCCCC(=O)N(CCO)CCO
AC50 (Cytochrome P450 3A4): 12.6 µM (inconclusive) | AC50 [12]: 31.6 µM (inconclusive)

COC(=O)c1c(NC(=O)c2nc3ccccc3s2)sc2c1CC(C)(C)NC2(C)C
EC50 [13]: 8.05 µM (active) | EC50 [8]: > 99 µM (inactive) | IC50 [14]: > 20 µM (inactive) | EC50 [15]: 8.33 µM (active) | EC50 [16]: 8.54 µM (active) | EC50 [10]: > 99 µM (inactive)

Cc1cc(C)c2c(N)c(C(=O)N/N=C/c3cccs3)sc2n1
IC50 (Prothrombin): 35.8 µM (active) | IC50 [6]: > 100 µM (inactive) | IC50 [7]: 8.64 µM (active)

O=C(N/N=C/c1cc([N+](=O)[O-])ccc1O)c1cc(-c2ccccc2)nc2ccccc12
IC50 (Prothrombin): 10.7 µM (active) | EC50 (Streptococcus): 2.65 µM (active) | IC50 [6]: > 100 µM (inactive) | EC50 [17]: 1.83 µM (active) | IC50 [7]: 14.8 µM (active) | AC50 (INS1): 1.24 µM (active)

CCOC(=O)c1ncn2c1[C@@H]1CCCN1C(=O)c1cc(OC)ccc1-2
AC50 [12]: 25.1 µM (inconclusive)

ClC1=C(Cl)C2(Cl)C3C4C=CC(C4)C3C1(Cl)C2(Cl)Cl (centres undefined) [ALDRIN]
AC50 [12]: 20 µM (inconclusive)

Nc1nc2[nH]c(=O)cnc2c(=O)[nH]1 [ISOXANTHOPTERIN]
GI50 (SN12K1): > 125 µM (inactive) | GI50 (P388/ADR): > 125 µM (inactive) | GI50 (P388): > 125 µM (inactive) | AC50 [12]: 17.8 µM (inconclusive)
